Data as given in patent publication US12577206B2 (BRISTOL-MYERS SQUIBB COMPANY, priority 2020, dated 2026).

Tests used:
[1] = target: T1, human FPR2 (Homo sapiens, UniProt P25090); test: FPR2 cyclic adenosine monophosphate (cAMP) assay; type: cell-based; settings: CHO cells overexpressing human FPR2; forskolin 5 μM; inhibition of cAMP production; HTRF; read-out: hFPR2 cAMP2 EC50
T1 sequence (P25090 1-351): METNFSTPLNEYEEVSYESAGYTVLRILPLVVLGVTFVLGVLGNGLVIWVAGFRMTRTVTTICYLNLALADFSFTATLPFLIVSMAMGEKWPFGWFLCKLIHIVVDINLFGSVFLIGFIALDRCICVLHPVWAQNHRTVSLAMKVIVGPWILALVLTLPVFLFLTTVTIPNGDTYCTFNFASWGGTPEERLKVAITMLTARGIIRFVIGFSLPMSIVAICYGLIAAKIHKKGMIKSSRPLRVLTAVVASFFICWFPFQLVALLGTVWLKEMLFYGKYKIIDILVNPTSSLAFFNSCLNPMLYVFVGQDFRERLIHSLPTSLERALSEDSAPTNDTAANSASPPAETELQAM
Procedure, shortened: (§1)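 Inhibition of forskolin-stimulated cAMP (final forskolin 5 μM for FPR2, 10 μM for FPR1; IBMX 200 μM) was measured by HTRF in recombinant CHO cells after 30 min at room temperature.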

[2] = target: T2, human FPR1 (Homo sapiens, UniProt P21462); test: FPR1 cyclic adenosine monophosphate (cAMP) assay; type: cell-based; settings: CHO cells overexpressing human FPR1; forskolin 10 μM; inhibition of cAMP production; HTRF; read-out: hFPR1 cAMP2 EC50
T2 sequence (P21462 1-350): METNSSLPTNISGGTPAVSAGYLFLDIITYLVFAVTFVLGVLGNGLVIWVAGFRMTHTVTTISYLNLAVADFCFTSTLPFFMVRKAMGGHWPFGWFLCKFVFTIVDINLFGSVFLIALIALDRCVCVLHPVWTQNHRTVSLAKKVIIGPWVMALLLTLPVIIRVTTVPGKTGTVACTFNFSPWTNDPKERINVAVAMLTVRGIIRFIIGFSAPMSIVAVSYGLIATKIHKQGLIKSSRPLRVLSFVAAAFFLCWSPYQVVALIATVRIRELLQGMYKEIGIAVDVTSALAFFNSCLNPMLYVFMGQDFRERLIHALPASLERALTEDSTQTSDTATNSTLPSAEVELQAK
Procedure, shortened: as §1

SMILES | EC50 [1] [nM] | EC50 [2] [nM]
COc1cc(F)c(-c2c(NC(=O)c3ccc(OC(F)F)cc3)c(=O)n(-c3nc(N4CCCC4=O)ccc3C(F)(F)F)n2C)c(F)c1 [Example 297, N-[5-(2,6-difluoro-4-methoxyphenyl)-1-methyl-3-oxo-2-[6-(2-oxopyrrolidin-1-yl)-3-(tifluoromethyl)pyridin-2-yl]-2,3-dihydro-1H-pyrazol-4-yl]-4-(difluoromethoxy)benzamide] | 2 | 380
COc1cc(F)c(-c2c(NC(=O)c3ccc(OC(F)F)cc3)c(=O)n(-c3nc(OCC(C)(C)O)ccc3Cl)n2C)c(F)c1 [Example 298, N-{2-[3-chloro-6-(2-hydroxy-2-methylpropoxy)pyridin-2-yl]-5-(2,6-difluoro-4-methoxyphenyl)-1-methyl-3-oxo-2,3-dihydro-1H-pyrazol-4-yl}-4-(difluoromethoxy)benzamide] | 14 | 440
COc1cc(F)c(-c2c(NC(=O)c3ccc(OC(F)F)cc3)c(=O)n(-c3nc(N4CC5(CC(O)C5)C4)ccc3Cl)n2C)c(F)c1 [Example 299, N-[2-(3-chloro-6-{6-hydroxy-2-azaspiro[3.3]heptan-2-yl}pyridin-2-yl)-5-(2,6-difluoro-4-methoxyphenyl)-1-methyl-3-oxo-2,3-dihydro-1H-pyrazol-4-yl]-4-(difluoromethoxy)benzamide] | 8 | > 5000
COc1cc(F)c(-c2c(NC(=O)c3ccc(OC(F)F)cc3)c(=O)n(-c3nc(N4CC(O)C4)ccc3Cl)n2C)c(F)c1 [Example 300, N-{2-[3-chloro-6-(3-hydroxyazetidin-1-yl)pyridin-2-yl]-5-(2,6-difluoro-4-methoxyphenyl)-1-methyl-3-oxo-2,3-dihydro-1H-pyrazol-4-yl}-4-(difluoromethoxy)benzamide] | 7 | > 5000
COc1cc(F)c(-c2c(NC(=O)c3ccc(OC(F)F)cc3)c(=O)n(-c3nc(N4CCCC4C(F)(F)F)ccc3C(F)(F)F)n2C)c(F)c1 (centres unmarked) [Example 302, N-[5-(2,6-difluoro-4-methoxyphenyl)-1-methyl-3-oxo-2-[3-(trifluoromethyl)-6-[2-(trifluoromethyl)pyrrolidin-1-yl]pyridin-2-yl]-2,3-dihydro-1H-pyrazol-4-yl]-4-(difluoromethoxy)benzamide] | 1 | 2200
COc1cc(F)c(-c2c(NC(=O)c3ccc(OC(F)F)cc3)c(=O)n(-c3nc(N4CCC(C(N)=O)C4)ccc3C(F)(F)F)n2C)c(F)c1 (centres unmarked) [Example 303, 1-{6-[3-(2,6-difluoro-4-methoxyphenyl)-4-[4-(difluoromethoxy)benzamido]-2-methyl-5-oxo-2,5-dihydro-1H-pyrazol-1-yl]-5-(trifluoromethyl)pyridin-2-yl}pyrrolidine-3-carboxamide] | 1 | > 10000
Cn1c(-c2ccc(OC(F)(F)F)cc2)c(NC(=O)c2ccc(OC(F)F)cc2)c(=O)n1-c1ncccc1C(F)(F)F [Example 304, 4-(difluoromethoxy)-N-{1-methyl-3-oxo-5-[4-(trifluoromethoxy)phenyl]-2-[3-(trifluoromethyl)pyridin-2-yl]-2,3-dihydro-1H-pyrazol-4-yl}benzamide] | 21 | 110
COc1cc(F)c(-c2c(NC(=O)c3ccc(OC(F)F)cc3)c(=O)n(-c3nc(N4CCC(C(N)=O)C4)ccc3C(F)(F)F)n2C)c(F)c1 (centres unmarked) [Example 305, 1-{6-[3-(2,6-difluoro-4-methoxyphenyl)-4-[4-(difluoromethoxy)benzamido]-2-methyl-5-oxo-2,5-dihydro-1H-pyrazol-1-yl]-5-(trifluoromethyl)pyridin-2-yl}pyrrolidine-3-carboxamide] | 2 | 3900
COc1cc(F)c(-c2c(NC(=O)c3ccc(OC(F)F)cc3)c(=O)n(-c3nc(N4CCN5CCC[C@@H]5C4)ccc3C(F)(F)F)n2C)c(F)c1 [Example 306, N-(2-{6-[(8aR)-octahydropyrrolo[1,2-a]piperazin-2-yl]-3-(trifluoromethyl)pyridin-2-yl}-5-(2,6-difluoro-4-methoxyphenyl)-1-methyl-3-oxo-2,3-dihydro-1H-pyrazol-4-yl)-4-(difluoromethoxy)benzamide] | 1 | 2300
COc1cc(F)c(-c2c(NC(=O)c3ccc(OC(F)F)cc3)c(=O)n(-c3nc(N4CC(C)(O)C4)ccc3Cl)n2C)c(F)c1 [Example 307, N-{2-[3-chloro-6-(3-hydroxy-3-methylazetidin-1-yl)pyridin-2-yl]-5-(2,6-difluoro-4-methoxyphenyl)-1-methyl-3-oxo-2,3-dihydro-1H-pyrazol-4-yl}-4-(difluoromethoxy)benzamide] | 5 | > 10000
COc1cc(F)c(-c2c(NC(=O)c3ccc(OC(F)F)cc3)c(=O)n(-c3nc(N4CC5(CC(O)C5)C4)ccc3C(F)(F)F)n2C)c(F)c1 [Example 308, N-[5-(2,6-difluoro-4-methoxyphenyl)-2-(6-{6-hydroxy-2-azaspiro[3.3]heptan-2-yl}-3-(trifluoromethyl)pyridin-2-yl)-1-methyl-3-oxo-2,3-dihydro-1H-pyrazol-4-yl]-4-(difluoromethoxy)benzamide] | 3 | > 10000
COc1cc(F)c(-c2c(NC(=O)c3ccc(OC(F)F)cc3)c(=O)n(-c3nc(N4CC(C)(O)C4)ccc3C#N)n2C)c(F)c1 [Example 311, N-{2-[3-cyano-6-(3-hydroxy-3-methylazetidin-1-yl)pyridin-2-yl]-5-(2,6-difluoro-4-methoxyphenyl)-1-methyl-3-oxo-2,3-dihydro-1H-pyrazol-4-yl}-4-(difluoromethoxy)benzamide] | 5 | > 10000

Further compounds by falling EC50 [1], results first:

EC50 [1] [nM] | EC50 [2] [nM] | SMILES
30 | 290 | COc1cccc(-n2c(=O)c(NC(=O)c3ccc(OC(F)F)cc3)c(-c3ccc(OC(F)F)cc3)n2C)n1 [Example 315, 4-(difluoromethoxy)-N-{5-[4-(difluoromethoxy)phenyl]-2-(6-methoxypyridin-2-yl)-1-methyl-3-oxo-2,3-dihydro-1H-pyrazol-4-yl}benzamide]
12 | 2000 | COc1cc(F)c(-c2c(NC(=O)c3ccc(OC(F)F)cc3)c(=O)n(-c3cccc(N4CC(C)(O)C4)n3)n2C)c(F)c1 [Example 312, N-[5-(2,6-difluoro-4-methoxyphenyl)-2-[6-(3-hydroxy-3-methylazetidin-1-yl)pyridin-2-yl]-1-methyl-3-oxo-2,3-dihydro-1H-pyrazol-4-yl]-4-(difluoromethoxy)benzamide]
10 | 2200 | CCc1ccc(OCC(C)(C)O)nc1-n1c(=O)c(NC(=O)c2ccc(OC(F)F)cc2)c(-c2c(F)cc(OC)cc2F)n1C [Example 309, N-[5-(2,6-difluoro-4-methoxyphenyl)-2-[3-ethyl-6-(2-hydroxy-2-methylpropoxy)pyridin-2-yl]-1-methyl-3-oxo-2,3-dihydro-1H-pyrazol-4-yl]-4-(difluoromethoxy)benzamide]
7 | > 10000 | CCc1ccc(N2CC(C)(O)C2)nc1-n1c(=O)c(NC(=O)c2ccc(OC(F)F)cc2)c(-c2c(F)cc(OC)cc2F)n1C [Example 310, N-[5-(2,6-difluoro-4-methoxyphenyl)-2-[3-ethyl-6-(3-hydroxy-3-methylazetidin-1-yl)pyridin-2-yl]-1-methyl-3-oxo-2,3-dihydro-1H-pyrazol-4-yl]-4-(difluoromethoxy)benzamide]
6 | 140 | Cn1c(-c2ccc(C(F)(F)F)cc2)c(NC(=O)c2ccc(OC(F)F)cc2)c(=O)n1-c1ncccc1C(F)(F)F [Example 301, 4-(difluoromethoxy)-N-{1-methyl-3-oxo-5-[4-(trifluoromethyl)phenyl]-2-[3-(trifluoromethyl)pyridin-2-yl]-2,3-dihydro-1H-pyrazol-4-yl}benzamide]
1 | 210 | COc1ccc(-c2c(NC(=O)c3ccc(OC(F)F)cc3)c(=O)n(-c3nc(N4CCC(C)(O)CC4)ccc3C(F)(F)F)n2C)c(F)c1 [Example 313, 4-(difluoromethoxy)-N-[5-(2-fluoro-4-methoxyphenyl)-2-[6-(4-hydroxy-4-methylpiperidin-1-yl)-3-(trifluoromethyl)pyridin-2-yl]-1-methyl-3-oxo-2,3-dihydro-1H-pyrazol-4-yl]benzamide]
1 | 2700 | COc1cc(F)c(-c2c(NC(=O)c3ccc(OC(F)F)cc3)c(=O)n(-c3nc(N4CCC(C)(O)CC4)ccc3C(F)(F)F)n2C)c(F)c1 [Example 314, N-[5-(2,6-difluoro-4-methoxyphenyl)-2-[6-(4-hydroxy-4-methylpiperidin-1-yl)-3-(trifluoromethyl)pyridin-2-yl]-1-methyl-3-oxo-2,3-dihydro-1H-pyrazol-4-yl]-4-(difluoromethoxy)benzamide]
